The text below walks through data of patent US5386019A, “Synthesis of inhibitors of calmodulin-mediated enzymes including KS-501, KS-502 and their enantiomers” (Yale University, priority 1992, dated 1995).

The subject of experiment [1] is Ca++/CaM dependent Kinase II. Kind of experiment: Synapsin I phosphorylation at sites 2,3 by Ca++/Calmodulin kinase (Table I A). Type of experiment: biochemical. To be noted: for Inhibitory activity against CaM-dependent kinases compared with cAMP-dependent kinase or protein kinase C: from data in Table I.
Experiment [2] concerns CaM KI. Kind of experiment: Synapsin I phosphorylation at site 1 by Ca++/Calmodulin kinase (Table I A). Type of experiment: biochemical.
Experiment [3] has as its system PKC. Kind of experiment: Synapsin I phosphorylation by PKC, Ca++/PSD (Table I B). It is filed as biochemical. An excerpt:
(§1) KS-501 & ent-KS-501 as Inhibitors of Ca++/Calmodulin PKC PKA
(§2) The results represent the mean of 3 experiments
Therefore in the reaction of CaMK or PKC, PKA inhibitor is included in th
In vitro PKC is able to phosphorylate Synapsin I at all 3 serine sites.

The test system of experiment [4] is cAMP dependent kinase. Kind of experiment: Synapsin I phosphorylation by PKA, cAMP (Table I C). Type of experiment: biochemical.
From the text: as §1, §2
Site 1 is phosphorylated by both CaM KI and cAMP dependent kinase.
reaction mix. And in the reaction of PKA, EGTA is included.

Experiment [5] concerns Ca2+/CaM-sensitive phosphodiesterase. As to the kind of experiment: Inhibition of Ca2+/CaM-sensitive phosphodiesterase (FIGS. 1-4). Type of experiment: biochemical. To be noted: for Inhibitory effects on CaM-mediated enzyme activity: enantiomers compared with KS-501 and KS-502. From the text: FIG. 1 is a graph showing the effect of various concentrations of KS-501 on the activity of Ca^2+ /CaM-dependent phosphodiesterase.
FIG. 2 is a graph showing the effect of various concentrations of ent-KS-501 on the activity of Ca^2+ /CaM-dependent phosphodiesterase.
FIG. 3 is a graph showing the effect of various concentrations of KS-502 on the activity of Ca^2+ /CaM-dependent phosphodiesterase.
FIG. 4 is a graph showing the effect of various concentrations of ent-KS-502 on the activity of Ca^2+ /CaM-dependent phosphodiesterase.

Experiment [6] concerns CaM-PDE. To be noted: background, cited from earlier work; for Concentration range inhibiting CaM-dependent activities of CaM-PDE: Nakanishi et al.
The test system of experiment [7] is protein kinase C. To be noted: background; cited from earlier work.
Where [8] appears, read: Basal, compound 10 μM, basal control 0.016, mean of 3 experiments.
Setting [9] is: Basal, compound 40 μM, basal control 0.016.
Where [10] appears, read: Ca++/CaM, compound 10 μM, Ca++ CaM 3 μg control 0.125.
Where [11] appears, read: Ca++/CaM, compound 40 μM, Ca++ CaM 3 μg control 0.125.
Where [12] appears, read: Basal, compound 10 μM, basal control 0.022.
Setting [13] is: Basal, compound 40 μM, basal control 0.022.
[14] abbreviates: Ca++/CaM, compound 10 μM, Ca++ CaM 3 μg control 0.049.
[15] abbreviates: Ca++/CaM, compound 40 μM, Ca++ CaM 3 μg control 0.049.
[16] abbreviates: Basal, compound 10 μM, basal control 0.016.
The mark [17] stands for this setting: Basal, compound 10 μM, basal control 0.018.
[18] abbreviates: Basal, compound 40 μM, basal control 0.018.
Setting [19] is: Ca++/PSD, compound 10 μM, Ca++ PSD control 0.045.
[20] abbreviates: Ca++/PSD, compound 10 μM, Ca++ PSD control 0.079.
Where [21] appears, read: Ca++/PSD, compound 40 μM, Ca++ PSD control 0.045.
Where [22] appears, read: Ca++/PSD, compound 40 μM, Ca++ PSD control 0.079.
Where [23] appears, read: Basal, compound 10 μM, basal control 0.007.
The mark [24] stands for this setting: Basal, compound 10 μM, basal control 0.028.
Where [25] appears, read: Basal, compound 40 μM, basal control 0.007.
The mark [26] stands for this setting: Basal, compound 40 μM, basal control 0.028.
[27] abbreviates: cAMP, compound 10 μM, cAMP 1 μM control 0.008.
[28] abbreviates: cAMP, compound 10 μM, cAMP 1 μM control 0.041.
[29] abbreviates: cAMP, compound 40 μM, cAMP 1 μM control 0.008.
[30] abbreviates: cAMP, compound 40 μM, cAMP 1 μM control 0.041.

Consider `CCCCCCCc1cc(O)cc(OC(=O)c2c(CCCCCCC)cc(O)cc2O[C@@H]2O[C@@H]([C@H](O)CO)[C@H](O)[C@H]2O)c1` [KS-501], for which the “Concentration range inhibitory of CaM-sensitive Kinase II” value in experiment [1] was in the range of 10 to 40 µM. Also, the “Phosphorylation of Synapsin I site 2,3” value in experiment [1] (setting [8]) stood at 0.017 pmole/mg protein/min; in experiment [1] (setting [9]), 0.015 pmole/mg protein/min; in experiment [1] (setting [10]), 0.087 pmole/mg protein/min; in experiment [1] (setting [11]) it was 0.012 pmole/mg protein/min; in experiment [3] (setting [16]) it was 0.015 pmole/mg protein/min; in experiment [3] (setting [9]), 0.015 pmole/mg protein/min. Besides, the “Phosphorylation of Synapsin I site 2,3” value worked out at 0.061 pmole/mg protein/min in experiment [3] (setting [20]); 0.030 pmole/mg protein/min in experiment [3] (setting [22]); 0.008 pmole/mg protein/min in experiment [4] (setting [23]); 0.007 pmole/mg protein/min in experiment [4] (setting [25]); 0.008 pmole/mg protein/min in experiment [4] (setting [27]); 0.009 pmole/mg protein/min in experiment [4] (setting [29]). Moreover, the “Inhibitory activity against CaM-dependent kinases compared with cAMP-dependent kinase or protein kinase C” value in experiment [1] was “more inhibitory activity against CaM-dependent kinases than against cAMP-dependent kinase or protein kinase C”. The “Phosphorylation of Synapsin I site 1” value in experiment [2] (setting [12]) turned out to be 0.025 pmole/mg protein/min; in experiment [2] (setting [13]) it was 0.017 pmole/mg protein/min; in experiment [2] (setting [14]), 0.054 pmole/mg protein/min; in experiment [2] (setting [15]), 0.011 pmole/mg protein/min; in experiment [3] (setting [17]), 0.020 pmole/mg protein/min; in experiment [3] (setting [18]), 0.016 pmole/mg protein/min. Also, the “Phosphorylation of Synapsin I site 1” value was determined as 0.041 pmole/mg protein/min in experiment [3] (setting [19]); 0.017 pmole/mg protein/min in experiment [3] (setting [21]); 0.033 pmole/mg protein/min in experiment [4] (setting [24]); 0.015 pmole/mg protein/min in experiment [4] (setting [26]); 0.049 pmole/mg protein/min in experiment [4] (setting [28]); 0.025 pmole/mg protein/min in experiment [4] (setting [30]). Also, the “Concentration range inhibitory of Ca2+/CaM-sensitive phosphodiesterase” value in experiment [5] is 1 to 2 µM. Further, the “Concentration range inhibiting CaM-dependent activities of CaM-PDE” value in experiment [6] is 1 to 5 µM. In addition, the “Concentrations required to inhibit CaM-independent activities” value in experiment [6] is on record as “Much higher concentrations”. Also, in experiment [7], the “Effect on protein kinase C” value was “no effect”.
Consider `CCCCCCCc1cc(OC(=O)c2c(CCCCCCC)cc(O)cc2O[C@@H]2O[C@@H]([C@H](O)CO)[C@H](O)[C@H]2O)cc(O)c1C(=O)O` [KS-502], for which the “Concentration range inhibitory of Ca2+/CaM-sensitive phosphodiesterase” value in experiment [5] is “approximately 10 μM”. In experiment [6], the “Concentration range inhibiting CaM-dependent activities of CaM-PDE” value is 1 to 5 µM and the “Concentrations required to inhibit CaM-independent activities” value is reported as “Much higher concentrations”. Moreover, the “Effect on protein kinase C” value in experiment [7] is “no effect”.
As for `CCCCCCCc1cc(O)cc(OC(=O)c2c(CCCCCCC)cc(O)cc2O[C@H]2O[C@H]([C@@H](O)CO)[C@@H](O)[C@@H]2O)c1` [ent-KS-501], in experiment [1], the “Concentration range inhibitory of CaM-sensitive Kinase II” value was 10 to 40 µM. The “Phosphorylation of Synapsin I site 2,3” value in experiment [1] (setting [8]) was determined as 0.018 pmole/mg protein/min; in experiment [1] (setting [9]), 0.018 pmole/mg protein/min; in experiment [1] (setting [10]), 0.076 pmole/mg protein/min; in experiment [1] (setting [11]), 0.021 pmole/mg protein/min; in experiment [3] (setting [16]) it was 0.015 pmole/mg protein/min; in experiment [3] (setting [9]) it was 0.014 pmole/mg protein/min. Further, the “Phosphorylation of Synapsin I site 2,3” value turned out to be 0.067 pmole/mg protein/min in experiment [3] (setting [20]); 0.02 pmole/mg protein/min in experiment [3] (setting [22]); 0.006 pmole/mg protein/min in experiment [4] (setting [23]); 0.010 pmole/mg protein/min in experiment [4] (setting [25]); 0.009 pmole/mg protein/min in experiment [4] (setting [27]); 0.008 pmole/mg protein/min in experiment [4] (setting [29]). For the same compound, the “Inhibitory activity against CaM-dependent kinases compared with cAMP-dependent kinase or protein kinase C” value in experiment [1] is given as “more inhibitory activity against CaM-dependent kinases than against cAMP-dependent kinase or protein kinase C”. In addition, the “Phosphorylation of Synapsin I site 1” value in experiment [2] (setting [12]) is reported as 0.023 pmole/mg protein/min; in experiment [2] (setting [13]), 0.019 pmole/mg protein/min; in experiment [2] (setting [14]), 0.043 pmole/mg protein/min; in experiment [2] (setting [15]), 0.012 pmole/mg protein/min; in experiment [3] (setting [17]), 0.018 pmole/mg protein/min; in experiment [3] (setting [18]) it was 0.013 pmole/mg protein/min. The “Phosphorylation of Synapsin I site 1” value in experiment [3] (setting [19]) is listed as 0.047 pmole/mg protein/min; in experiment [3] (setting [21]), 0.01 pmole/mg protein/min; in experiment [4] (setting [24]) it was 0.025 pmole/mg protein/min; in experiment [4] (setting [26]) it was 0.017 pmole/mg protein/min; in experiment [4] (setting [28]) it was 0.049 pmole/mg protein/min; in experiment [4] (setting [30]), 0.03 pmole/mg protein/min. The “Concentration range inhibitory of Ca2+/CaM-sensitive phosphodiesterase” value in experiment [5] lay in the range of 1 to 2 µM. Moreover, the “Inhibitory effects on CaM-mediated enzyme activity” value in experiment [5] is reported as “possess inhibitory activity”.
In the case of `CCCCCCCc1cc(OC(=O)c2c(CCCCCCC)cc(O)cc2O[C@H]2O[C@H]([C@@H](O)CO)[C@@H](O)[C@@H]2O)cc(O)c1C(=O)O` [ent-KS-502], in experiment [5], the “Concentration range inhibitory of Ca2+/CaM-sensitive phosphodiesterase” value is “approximately 10 μM” and the “Inhibitory effects on CaM-mediated enzyme activity” value was “possess inhibitory activity”.
